Structures can show the parent of a compound that is named as a salt.
Target: T1, human S1P1 receptor (Homo sapiens, UniProt P21453)
T1 construct: expressed in transfected cells; membranes
Assay: S1P1 GTPγS binding assay (and alternative method)
Format: biochemical
Conditions: in one of the above S1P1 GTPγS binding assays (first or alternative method, RH7777 membranes)
Method: For membrane preparations all steps were performed at 4° C. Rat hepatoma cells stably expressing the human S1P1 receptor or Rat Basophilic Leukaemia cells (RBL) stably expressing human S1P3 receptor were grown to 80% confluency before being harvested into 10 ml Phospho-Buffered Saline (PBS) and centrifuged at 1200 rpm […]. After removal of the supernatant, the pellet was re-suspended and cells were homogenised within a glass Waring blender for 2 bursts of 15 secs in 200 mls of buffer (50 mM HEPES, 1 mM leupeptin, 25 μg/ml bacitracin, 1 mM EDTA, 1 mM PMSF, 2 μM pepstatin A). The blender was plunged into ice for 5 mins after the first burst and 10-40 mins after the final burst to allow foam to dissipate. The material was then spun at 500 g for 20 mins and the supernatant spun for 36 mins at 48,000 g. The pellet was resuspended in the same buffer as above but without PMSF and pepstatin A. The material was then forced through a 0.6 mm needle, made up to the required volume, (usually ×4 the volume of the original cell pellet), aliquoted and stored frozen at −80° C. Human S1P1 rat hepatoma membranes (1.5 μg/well) were adhered to a wheatgerm agglutinin (WGA)-coated scintillation proximity assay (SPA) beads (0.125 mg/well) in assay buffer (HEPES 20 mM, MgCl2 10 mM, NaCl 100 mM and pH adjusted to 7.4 using KOH 5M, GDP 10 μM FAC (final assay concentration) and saponin 90 μg/ml FAC was also added). After 30 minutes pre-coupling on ice the bead and membrane suspension was dispensed into a white Greiner polypropylene LV384-well plate (5 μl/well), containing 0.1 μl of the compound. 5 μl/well [^35S]-GTPγS (0.5 nM final radioligand conc) made up in assay buffer was then added to agonist plates. The final assay cocktail […] was then centrifuged at 1000 rpm for 5 minutes then read immediately on a Viewlux reader. All test compounds were dissolved in DMSO at a concentration of 10 mM and were prepared in 100% DMSO using a 1 in 4 dilution step to provide 11 point dose response curves. The dilutions were transferred to the assay plates ensuring that the DMSO concentration was constant across the plate for all assays. All data was normalized to the mean of 16 high and 16 low control wells on each plate. A four parameter curve fit was then applied. S1P1 expressing RH7777 membranes (1.5 μg/well) […] were homogenised by passing through a 23G needle. These were then adhered to WGA-coated SPA beads (0.125 mg/well) in assay buffer (HEPES 20 mM, MgCl2 10 mM, NaCl 100 mM and pH adjusted to 7.4 using KOH 5M). GDP 10 μM FAC and saponin 90 μg/ml FAC were also added After 30 minutes precoupling on ice, the bead and membrane suspension was dispensed into white Greiner polypropylene LV 384-well plates (5 μl/well), containing 0.1 μl of compound. 5 μl/well [^35S]-GTPγS (0.5 nM for S1P1 or 0.3 nM for S1P3 final radioligand concentration) made in assay buffer was then added to the plates. The final assay cocktail (10.1 μl) was then sealed, spun on a centrifuge, then read immediately on a Viewlux instrument.

T1 sequence (P21453 whole entry): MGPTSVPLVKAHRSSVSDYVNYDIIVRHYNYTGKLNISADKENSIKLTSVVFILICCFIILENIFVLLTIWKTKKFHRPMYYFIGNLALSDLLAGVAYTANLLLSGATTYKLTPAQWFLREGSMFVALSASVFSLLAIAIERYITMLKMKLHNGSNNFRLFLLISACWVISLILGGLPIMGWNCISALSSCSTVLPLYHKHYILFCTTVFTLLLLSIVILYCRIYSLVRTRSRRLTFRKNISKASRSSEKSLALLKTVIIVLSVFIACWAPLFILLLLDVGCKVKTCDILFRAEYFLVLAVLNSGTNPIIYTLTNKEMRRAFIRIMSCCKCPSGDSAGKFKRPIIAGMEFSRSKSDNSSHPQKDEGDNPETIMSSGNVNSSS

| SMILES | EC50 |
| --- | --- |
| CC(C)Oc1ccc(-c2nc(-c3cccc4c(CCC(=O)O)nccc34)no2)cc1Cl [Example 1, 3-[5-(5-{3-Chloro-4-[(1-methylethyl)oxy]phenyl}-1,2,4-oxadiazol-3-yl)-1-isoquinolinyl]propanoic acid lithium salt] | ≤ 10 nM |
| CC(C)Oc1ccc(-c2nc(-c3cccc4c(N5CCC(C(=O)O)CC5)nccc34)no2)cc1Cl [Example 4, 1-[5-(5-{3-Chloro-4-[(1-methylethyl)oxy]phenyl}-1,2,4-oxadiazol-3-yl)-1-isoquinolinyl]-4-piperidinecarboxylic acid lithium salt] | ≤ 10 nM |
| O=C(O)CCc1nccc2c(-c3noc(-c4ccc(OCC(F)(F)F)c(Cl)c4)n3)cccc12 [Example 24, 3-[5-(5-{3-Chloro-4-[(2,2,2-trifluoroethyl)oxy]phenyl}-1,2,4-oxadiazol-3-yl)-1-isoquinolinyl]propanoic acid hydrochloride] | ≤ 10 nM |
| CC(C)Oc1ccc(-c2nc(-c3cccc4c(CCC(=O)O)nccc34)no2)cc1C#N [Example 26, 3-[5-(5-{3-Cyano-4-[(1-methylethyl)oxy]phenyl}-1,2,4-oxadiazol-3-yl)-1-isoquinolinyl]propanoic acid hydrochloride] | ≤ 10 nM |
| CC(C)Oc1ncc(-c2nc(-c3cccc4c(CCC(=O)O)nccc34)no2)cc1Cl [Example 27, 3-[5-(5-{5-Chloro-6-[(1-methylethyl)oxy]-3-pyridinyl}-1,2,4-oxadiazol-3-yl)-1-isoquinolinyl]propanoic acid] | ≤ 10 nM |
| CC(C)Oc1ncc(-c2nc(-c3cccc4c(CCCC(=O)O)nccc34)no2)cc1Cl [Example 30, 4-[5-(5-{5-Chloro-6-[(1-methylethyl)oxy]-3-pyridinyl}-1,2,4-oxadiazol-3-yl)-1-isoquinolinyl]butanoic acid] | ≤ 10 nM |

Target: T2, human S1P3 receptor (Homo sapiens, UniProt Q99500)
T2 construct: expressed in transfected cells; membranes
Assay: S1P3 GTPγS binding assay (and alternative method)
Format: biochemical
Conditions: in one of the above S1P3 GTPγS binding assays (first or alternative method, RBL membranes)
Method: For membrane preparations all steps were performed at 4° C. Rat hepatoma cells stably expressing the human S1P1 receptor or Rat Basophilic Leukaemia cells (RBL) stably expressing human S1P3 receptor were grown to 80% confluency before being harvested into 10 ml Phospho-Buffered Saline (PBS) and centrifuged at 1200 rpm […]. After removal of the supernatant, the pellet was re-suspended and cells were homogenised within a glass Waring blender for 2 bursts of 15 secs in 200 mls of buffer (50 mM HEPES, 1 mM leupeptin, 25 μg/ml bacitracin, 1 mM EDTA, 1 mM PMSF, 2 μM pepstatin A). The blender was plunged into ice for 5 mins after the first burst and 10-40 mins after the final burst to allow foam to dissipate. The material was then spun at 500 g for 20 mins and the supernatant spun for 36 mins at 48,000 g. The pellet was resuspended in the same buffer as above but without PMSF and pepstatin A. The material was then forced through a 0.6 mm needle, made up to the required volume, (usually ×4 the volume of the original cell pellet), aliquoted and stored frozen at −80° C. […] The final assay cocktail (10.1 μl) was centrifuged at 1000 rpm for 5 minutes then read immediately on a Viewlux reader. […] The final assay cocktail (10.1 μl) was then sealed, spun on a centrifuge, then read immediately on a Viewlux instrument.

T2 sequence (Q99500 whole entry): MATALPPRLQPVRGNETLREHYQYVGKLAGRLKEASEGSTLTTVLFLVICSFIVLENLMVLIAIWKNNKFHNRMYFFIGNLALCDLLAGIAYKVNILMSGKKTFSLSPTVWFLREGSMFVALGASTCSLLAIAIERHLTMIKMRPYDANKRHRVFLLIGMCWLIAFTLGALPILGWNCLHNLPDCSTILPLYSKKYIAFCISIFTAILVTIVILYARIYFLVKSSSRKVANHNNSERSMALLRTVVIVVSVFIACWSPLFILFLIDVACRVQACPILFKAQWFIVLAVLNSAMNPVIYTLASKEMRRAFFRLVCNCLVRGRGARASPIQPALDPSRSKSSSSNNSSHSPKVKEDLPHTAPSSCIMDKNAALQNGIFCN

| SMILES | EC50 |
| --- | --- |
| CC(C)Oc1ccc(-c2nc(-c3cccc4c(N5CCC(C(=O)O)CC5)nccc34)no2)cc1Cl [Example 4, 1-[5-(5-{3-Chloro-4-[(1-methylethyl)oxy]phenyl}-1,2,4-oxadiazol-3-yl)-1-isoquinolinyl]-4-piperidinecarboxylic acid lithium salt] | 3.16 µM |
